Assay [1] addresses T1, EGFR which expressed on H292 cells (Homo sapiens, UniProt P00533).
T1 construct: H292 cells, which were human non-small cell lung cancer cells purchased from Procell, were capable of expressing EGFR and c-Met receptors; host or cells: H292 cells
Description: Blocking EGF-EGFR interaction on H292 cells (flow cytometry, Biotin-h.EGF). The format is cell-based. Particulars: negative controls, FIG. 3. The procedure: H292 cells, which were human non-small cell lung cancer cells purchased from Procell, were capable of expressing EGFR and c-Met receptors. H292 cells were expanded to a suitable density, digested and detached from the cell culture flask, resuspended to 1×10^6 cells/ml, added to a 96-well flow plate, 100 μL per well, and centrifuged for later use. The antibody to be tested was subjected to 3-fold dilution with PBS, starting from 200 nM, and the diluted sample was added to the 96-well flow plate with cells, 100 μL/well, and incubated at 25° C. for 60 min. Biotin-h.EGF was diluted to 100 nM with PBS, added to the 96-well flow plate with cells, 100 μL/well, and incubated at 25° C. for 60 min. then washed twice with PBS. Streptavidin-FITC (purchased from Jackson) was diluted 100 times with PBS and added to the plate, 100 µL/well, incubated at 4° C. for 30 min, and washed twice with PBS. 100 μL/well of PBS was added to resuspend the cells, then the cells were detected on a CytoFlex (Beckman) flow cytometer, and the corresponding MFI was calculated.
For orientation: A flow cytometer gives signals particle by particle.

The test system of assay [2] is HepG2 cells. The assay is described as follows: Blocking HGF-induced migration of HepG2 cells. It is filed as cell-based, human. Particulars: HGF in lower chamber, 3 days, FIG. 6. An excerpt:
HepG2 cells were human liver cancer cells and purchased from ATCC, which were capable of expressing EGFR and c-Met receptors. When HGF was placed in the lower chamber culture medium, it would induce HepG2 cells in the upper chamber to migrate to the lower chamber through the filter membrane. The specific experimental method was as follows: HepG2 cells were expanded to an appropriate density, the cells were digested and detached from the cell culture flask, resuspended to 1×10^6 cells/ml, and added to the upper chamber of the 24-well cell migration plate (purchased from Corning) at 100 μL per well for later use. The bispecific antibody was diluted to 200 nM with MEM, added to the upper chamber of the 24-well cell migration plate at 100 μL per well, and incubated at 25° C. for 60 min. h.HGF (purchased from R&D) was diluted to 50 ng/mL with MEM, added to the lower chamber of the cell migration plate at 500 μL/well, and cultured for 3 days at 37° C. and 5% carbon dioxide. The non-migrated cells on the upper chamber membrane were gently wiped with cotton swabs, the cells that migrated to the lower chamber membrane were lysed with Cell titer glo (purchased from Promega), and the chemiluminescent signal was collected with an microplate plate reader.

For assay [3], the system named is H1975-HGF human lung cancer cells. Description: Experimental Model 5: H1975-HGF tumor-bearing model, combination with Osimertinib. The format is in vivo, CB-17 SCID mice. Particulars: antibody Day 16 and Day 18: 3 mg/kg, Osimertinib Days 16 to 22: 3 mg/kg/day, last measured 28 days after inoculation. From the text: In this experiment, the in vivo efficacy of the bispecific antibody of the present application in combination with an small molecule EGFR inhibitor (e.g., Osimertinib) was detected. Using the lentiviral transfection method, the cDNA encoding human HGF (hepatocyte growth factor) (the sequence was from UniProtKB P14210) was constructed on the pLVX-neu vector by General Biol, and the plasmid was transfected into H1975 cells to construct a cell line ([…]) with stable expression of HGF. In this experiment, CB-17 SCID mice were subcutaneously inoculated with H1975-HGF human lung cancer cells to establish a tumor-bearing model and determine the anti-tumor effect of the anti-EGFRxc-Met bispecific antibody. The model construction process was the same as that of Experimental Model 2. The mice were divided into groups according to the grouping and dosing scheme in Table 10 and the corresponding doses of antibodies were injected.
The tumor volume and body weight of mice were measured 2 to 3 times a week. The body weight and tumor volume of mice were measured for the last time 28 days after the tumor cell inoculation, and then the mice were euthanized.

Assay [4] has as its system A375/H1975/HCC827 cells. Description: ADCC induction, CD16a-NFAT-Luc Jurkat reporter gene cells. Particulars: A375, H1975, HCC827 target cells, CD16a-NFAT-Luc Jurkat effector cells, 6 h, FIG. 9. It is filed as cell-based, human. An excerpt:
A375 cells were human malignant melanoma cells and purchased from Addexbio, which were capable of expressing EGFR and c-Met receptors. H1975 cells were human lung adenocarcinoma cells and purchased from Addexbio, which were capable of highly expressing EGFR and c-Met receptors. HCC827 cells were human non-small cell lung cancer cells and purchased from the Cell Bank of the Chinese Academy of Sciences, which were capable of highly expressing EGFR and c-Met receptors. […]

The test system of assay [5] is H292 human lung cancer tumor cells. The assay is described as follows: Experimental Model 4: H292 tumor-bearing model, comparison with Rybrevant. It is filed as in vivo, CB-17 SCID mice. Particulars: H292, single dose Day 14: 10 mg/kg; last measured 27 days after inoculation. An excerpt:
In this experiment, CB-17 SCID mice were subcutaneously inoculated with H292 human lung cancer tumor cells to establish a tumor-bearing model, and the anti-EGFRxc-Met bispecific antibody was compared with the commercially available EGFRxc-Met bispecific antibody Rybrevant (purchased from Johnson & Johnson, batch number: LHS3G02) (this antibody had been published at various oncology conferences and was also known as JNJ-6372) in terms of anti-tumor effect. The mouse model establishment process was the same as that of Experimental Model 1. The groups were divided according to the grouping and dosing scheme in Table 9 and the corresponding doses of antibodies were injected.
The tumor volume and body weight of the mice were measured 2 to 3 times a week. The weight and tumor volume of the mice were measured for the last time 27 days after the inoculation of tumor cells, and the mice were euthanized.

For the compound “anti-MET single-arm antibody: anti-c-Met single-arm molecule constructed based on the control molecule Amivantamab; heavy chain SEQ ID NO: 43, light chain SEQ ID NO: 8 [reference compound]”, the “blocking interaction between EGF and EGFR” value in assay [1] was “could not block”.
For “anti-EGFR single-arm antibody: anti-EGFR single-arm antibody prepared based on the control antibody Amivantamab; heavy chain SEQ ID NO: 42, light chain SEQ ID NO: 4 [reference compound]”, the “blocking of HGF-induced migration of HepG2 cells” value in assay [2] is reported as “could not block”.
What is called TGI is the reduction of tumour growth relative to the control group. On to `C=CC(=O)Nc1cc(Nc2nccc(-c3cn(C)c4ccccc34)n2)c(OC)cc1N(C)CCN(C)C` [Osimertinib], for which the TGI in assay [3] came to 38.9%.
As for “Amivantamab analog: control anti-EGFRxcMet bispecific antibody with anti-cMet arm of WO2011/110642A2, obtained in normal host cells [reference compound]”, in assay [4], the ADCC effect entry is on record as “induced ADCC effects”.
As for “Rybrevant: commercially available EGFRxc-Met bispecific antibody, purchased from Johnson & Johnson, batch number LHS3G02 [reference compound]”, the TGI in assay [3] was 44.1%; in assay [5], 67.9%.

The values above are taken from patent publication US20250223366A1, “MONOCLONAL ANTIBODIES AND BISPECIFIC ANTIBODY AGAINST C-MET” (BIOTHEUS INC., priority 2022, published 2025).
